Reference: patent publication US20190328687A1, “Antibacterial Compounds” (priority 2014, published 2019)
Like-named read-outs stand apart in the source and are kept apart here. Peptide text beside a SMILES is read from it. * marks the point of attachment. βNA = c1ccc2cc(N*)ccc2c1

What was measured:
[1] = test system: Staphylococcus aureus ATCC 43300 (MRSA); assay: Growth inhibition of Gram positive bacteria: IC50 measurements; conditions: ATCC43300|MRSA, 4 h, read-out: IC50 against Staphylococcus aureus ATCC 43300 (MRSA)
Protocol: (§1) Data are the mean of two independent replicates (using duplicate technical replicates for each independent experiment) and error bars indicate standard error of the mean.
(§2) Data are the mean of two technical replicates.
(§3) 15 mL tubes containing 2 mL tryptic soy broth (TSB) were inoculated with the Gram positive bacterial strains Staphylococcus aureus ATCC 43300 (MRSA), Bacillus thuringiensis P.1.IPS-80 serovar israelensis, or Listeria welshimeri ATCC 35897. Strains were incubated overnight at 37° C. with shaking at 200 rpm. The following day, the overnight cultures were diluted in fresh TSB to give an OD600 of approximately 0.3. Duplicate 40 μL aliquots of this were then added to individual wells of a sterile 384 well plate, containing 40 μL TSB medium supplemented with serial dilutions of 2× niclosamide or nitazoxanide, including 0 μM controls. Culture turbidity was monitored by optical density at 600 nm at 4 h post-challenge. Percentage growth inhibition values were calculated by comparison of the niclosamide- or nitazoxanide-challenged cells with the unchallenged control for each strain, after subtracting the initial absorbance values (t=0 h). […]

[2] = test system: E. coli 7KOΔtolC (DE3); assay: 7KOΔtolC(DE3) cell sensitivity assay
Protocol: Overnight cultures of E. coli 7KOΔtolC (DE3) strains overexpressing either E. coli NfsA (NfsA_Ec), E. coli NfsB (NfsB_Ec) or containing a plasmid only (pET28) control are used to inoculate fresh aliquots of assay media (LB media supplemented with 50 μg·mL^−1 kanamycin and 50 μM IPTG) which are incubated at 30° C., 200 rpm for 2.5 h. 40 μL aliquots of each culture are then added to 40 μL aliquots of assay media containing 2× the desired final concentration of nitazoxanide (i.e., resulting in a final 2-fold dilution series from 20 down to 2.5 μM) or a 0 μM media only control. The plate is then incubated at 30° C., 200 rpm for 4 h. Culture turbidity is monitored by optical density at 600 nm in order to calculate percentage growth relative to the 0 μM control for each strain. Data are the mean of at least two independent experiments±SEM.
Individual wells of a 96-well microtitre plate containing 100 μL LB supplemented with 50 μg mL^−1 are inoculated in duplicate with 7KOΔtolC(DE3) strains overexpressing E. coli nfsA, E. coli nfsB or a pET28 empty plasmid control. Strains are incubated overnight at 30° C. in a Heidolph titramax platform shaker at 900 rpm. 30 μL of each overnight culture is used to inoculate duplicate cultures of 600 μL LB supplemented with 50 μg mL^−1 kanamycin and 50 μM IPTG in a 96 well deep culture plate (Axygen). Cultures are incubated at 30° C., 1200 rpm for 2.5 h. 40 μL aliquots from each culture are then added to individual wells of a sterile 384 well plate, containing 40 μL LB medium supplemented with 100 μg mL^−1 kanamycin, 50 μM IPTG and serial dilutions of nitazoxanide, including 0 μM controls. Each nitroreductase over-expression strain is tested in duplicate (independent replicates). Culture turbidity is monitored by optical density at 600 nm 4 h post-challenge. Percentage growth values are calculated by comparison of the nitazoxanide-challenged cells with the unchallenged control, after subtracting the initial absorbance values (t=0 h). Microtitre plate absorbance readings are measured using an Eon Biotek Reader (BioTek Instruments Inc.).

[3] = test system: pyruvate oxidoreductases; conditions: cited from earlier work
[4] = test system: Listeria welshimeri ATCC 35897; assay: Growth inhibition of Gram positive bacteria: IC50 measurements; conditions: ATCC35897, 4 h, read-out: IC50 against Listeria welshimeri ATCC 35897
Protocol: as §1, §2, §3

[5] = test system: M. tuberculosis; conditions: cited from earlier work
[6] = test system: Salmonella typhimurium; conditions: cited from earlier work
[7] = target: AcrAB-TolC (Escherichia coli, UniProt P02930+P31224); conditions: cited from earlier work
Chain of AcrAB-TolC (P31224 whole entry): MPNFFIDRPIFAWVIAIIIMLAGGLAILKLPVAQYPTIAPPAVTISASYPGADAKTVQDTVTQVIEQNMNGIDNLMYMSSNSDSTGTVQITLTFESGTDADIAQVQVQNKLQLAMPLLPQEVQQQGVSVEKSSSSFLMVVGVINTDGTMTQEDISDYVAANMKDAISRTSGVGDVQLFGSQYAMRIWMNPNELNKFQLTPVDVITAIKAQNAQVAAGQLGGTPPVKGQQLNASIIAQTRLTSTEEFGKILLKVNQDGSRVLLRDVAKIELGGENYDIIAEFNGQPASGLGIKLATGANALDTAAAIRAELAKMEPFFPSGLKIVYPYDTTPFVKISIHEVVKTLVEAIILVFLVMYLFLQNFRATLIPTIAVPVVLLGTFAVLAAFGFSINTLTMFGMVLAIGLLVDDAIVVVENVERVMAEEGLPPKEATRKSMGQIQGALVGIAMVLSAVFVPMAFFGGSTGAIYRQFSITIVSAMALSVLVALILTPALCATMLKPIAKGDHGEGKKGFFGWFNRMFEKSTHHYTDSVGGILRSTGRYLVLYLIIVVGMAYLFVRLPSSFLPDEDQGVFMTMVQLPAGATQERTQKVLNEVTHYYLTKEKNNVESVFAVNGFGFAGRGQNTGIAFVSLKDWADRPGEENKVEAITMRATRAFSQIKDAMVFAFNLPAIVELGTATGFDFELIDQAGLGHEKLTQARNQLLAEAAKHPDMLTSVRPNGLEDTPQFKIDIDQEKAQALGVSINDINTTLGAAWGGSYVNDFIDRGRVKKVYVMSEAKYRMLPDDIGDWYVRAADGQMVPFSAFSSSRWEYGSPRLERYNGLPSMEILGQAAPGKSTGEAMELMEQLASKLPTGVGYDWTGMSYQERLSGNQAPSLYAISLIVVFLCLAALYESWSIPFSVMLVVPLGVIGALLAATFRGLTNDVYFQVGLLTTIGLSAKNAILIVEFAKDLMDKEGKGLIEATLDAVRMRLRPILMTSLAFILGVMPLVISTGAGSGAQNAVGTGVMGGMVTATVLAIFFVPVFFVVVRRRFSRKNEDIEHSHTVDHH
Chain of AcrAB-TolC (P02930 23-493): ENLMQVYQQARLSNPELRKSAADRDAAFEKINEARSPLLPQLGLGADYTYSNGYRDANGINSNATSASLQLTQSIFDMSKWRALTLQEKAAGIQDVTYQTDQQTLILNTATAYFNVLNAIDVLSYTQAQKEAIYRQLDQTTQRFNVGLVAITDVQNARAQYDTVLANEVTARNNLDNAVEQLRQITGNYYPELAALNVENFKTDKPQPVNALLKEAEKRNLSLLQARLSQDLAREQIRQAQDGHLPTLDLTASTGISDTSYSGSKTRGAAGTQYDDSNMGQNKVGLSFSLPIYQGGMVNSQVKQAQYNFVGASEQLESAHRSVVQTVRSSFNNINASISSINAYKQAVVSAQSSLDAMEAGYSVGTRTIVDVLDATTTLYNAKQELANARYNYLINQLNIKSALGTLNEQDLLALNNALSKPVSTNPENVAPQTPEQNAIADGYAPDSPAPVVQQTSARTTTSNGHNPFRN
Chain of AcrAB-TolC (P0AE06 25-397, further chain): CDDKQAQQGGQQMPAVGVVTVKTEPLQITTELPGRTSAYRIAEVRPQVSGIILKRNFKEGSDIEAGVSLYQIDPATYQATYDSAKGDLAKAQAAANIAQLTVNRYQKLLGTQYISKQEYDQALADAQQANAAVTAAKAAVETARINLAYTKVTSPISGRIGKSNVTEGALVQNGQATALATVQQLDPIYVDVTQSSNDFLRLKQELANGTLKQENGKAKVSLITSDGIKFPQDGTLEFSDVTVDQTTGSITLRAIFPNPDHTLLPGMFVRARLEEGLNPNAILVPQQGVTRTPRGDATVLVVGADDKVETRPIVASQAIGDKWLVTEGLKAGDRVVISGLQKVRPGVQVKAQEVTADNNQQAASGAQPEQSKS

[8] = test system: efflux pumps over-expressed in P. aeruginosa; conditions: growth inhibition in presence of levofloxacin; cited from earlier work
[9] = test system: E. coli 7KO; assay: Cell sensitivity assay (growth, OD600)
Protocol: (§4) Overnight cultures of E. coli 7KO or 7KOΔtolC strains are used to inoculate fresh aliquots of LB media which are then incubated at 30° C., 200 rpm for 2.5 h. 40 μL aliquots of each culture are subsequently added to 40 μL of LB media containing 2× the desired final niclosamide concentration (i.e., resulting in a final 2-fold dilution series from 5 μM down to 20 nM) or a 0 μM control in a 384-well microplate. The plate is incubated at 30° C., 200 rpm for 4 h. Culture turbidity is monitored by optical density at 600 nm in order to calculate percentage growth relative to the 0 μM control for each strain. Data are the mean of at least two independent experiments±SEM.
Overnight cultures of E. coli 7KO are used to inoculate fresh aliquots of LB media which are then incubated at 30° C., 200 rpm for 2.5 h. 40 μL aliquots of each culture are subsequently added to 40 μL of LB media containing 2× the desired final niclosamide concentration (i.e., resulting in a final 2-fold dilution series from 10 μM down to 160 nM) or a 0 μM control, as well as either 0 μM, 25 μM or 50 μM PaβN in a 384-well microplate. An overnight culture of 7KOΔtolC is treated in the same manner, but without addition of PaβN. […] Culture turbidity is monitored by optical density at 600 nm in order to calculate percentage growth relative to the 0 μM niclosamide control for each series. […]

[10] = test system: methicillin resistant Staphylococcus aureus (MRSA; ATCC43300); assay: Heatmap growth inhibition assay, MRSA; conditions: single agent
[11] = test system: E. coli 7KOΔtolC; assay: Cell sensitivity assay (growth, OD600)
Protocol: as §4
Overnight cultures of E. coli 7KOΔtolC are used to inoculate fresh aliquots of LB media which are incubated at 30° C., 200 rpm for 2.5 h. […] Culture turbidity is monitored by optical density at 600 nm in order to calculate percentage growth relative to the 0 μM control for each strain. […]
This procedure applies to all experiments yielding growth curves for Gram negative bacterial strains generated in the presence of niclosamide or 2-chloro-4-nitroaniline, unless noted otherwise below or in the individual Figure Descriptions. […] Culture turbidity is monitored by optical density at 600 nm (OD600) 4 h post-challenge. […]

[12] = test system: E. coli 6KO; assay: Toxicity to E. coli host strain; format: cell-based; conditions: even if not over-expressing an active nitroreductase
Text: Without wishing to be bound by theory, the applicants hypothesise that a key difference between the niclosamide-sensitive SOS-R2 and niclosamide-resistant 6KO strains is that the former carry a deletion of the tolC gene, which encodes an efflux pump capable of exporting numerous xenobiotic and other compounds directly across both cell membranes of Gram negative bacterial cells.

[13] = test system: Mycobacterium tuberculosis; conditions: cited from earlier work
[14] = test system: E. coli 7KOΔtolC strains over-expressing nitroreductase candidates from plasmid pUCX; assay: Cell sensitivity assay, nitroreductase over-expressing strains; format: cell-based; conditions: for IC50: Escherichia coli
[15] = test system: quorum sensing system in Pseudomonas aeruginosa; conditions: among FDA-approved drugs tested; cited from earlier work
[16] = Heatmap growth inhibition assay, drug-resistant clinical isolates; conditions: read-out: IC50 against clinical isolates

CC(=O)Oc1ccccc1C(=O)Nc1ncc([N+](=O)[O-])s1 [Nitazoxanide, 2-acetyloxy-N-(5-nitro 2-thiazolyl)benzamide]
IC50 [1]: 2900 nM | Toxicity relative to niclosamide (less toxic) ([2]; 7KOΔtolC (DE3) cells): approximately 2 orders of magnitude | Effect of NfsA and NfsB over-expression on toxicity ([2]; 7KOΔtolC (DE3), pET28 NfsA or NfsB): able to defend against nitazoxanide toxicity | IC50 ([2]; Escherichia coli, 4 h, read-out: IC50 in 7KOΔtolC (DE3) cells): 5200 nM | Inhibition of pyruvate oxidoreductases [3]: inhibits pyruvate oxidoreductases | IC50 [4]: 8780 nM | Effect on membrane potential [5]: disrupts membrane potential and pH homeostasis | Effect on membrane potential ([5]; listed as nitazoxanide): uncoupled the membrane potential

O=C(O)c1cc(Cl)ccc1O [5-chlorosalicyclic acid]
Mutagenicity [6]: non-mutagenic

N=C(N)NCCC[C@H](NC(=O)[C@@H](N)Cc1ccccc1)C(=O)Nc1ccc2ccccc2c1 [PAβN, phenylalanine-arginine β-napthylamide] (H-Phe-Arg-βNA)
Activity against AcrAB-TolC [7]: active against AcrAB-TolC | Activity against P. aeruginosa efflux pumps [8]: active against each of the efflux pumps | Effect of PAβN on niclosamide sensitivity ([9]; 25 μM or 50 μM PAβN, niclosamide 10 μM down to 156 nM): promote niclosamide sensitivity in the 7KO strain in a dose-dependent manner | Sensitivity of MRSA (concentration level) [10]: micromolar levels

Nc1ccc([N+](=O)[O-])cc1Cl [2-chloro-4-nitroaniline]
Mutagenicity [6]: mutagenic product | Toxicity relative to niclosamide ([11]; growth inhibition of 7KOΔtolC, FIG. 15): at least three orders of magnitude less toxic than niclosamide

O=C(Nc1ccc([N+](=O)[O-])cc1Cl)c1cc(Cl)ccc1O [Niclosamide, N-(2′-chloro-4′-nitrophenyl)-5-chlorosalicylamide]
Toxicity to 6KO strain [12]: no longer found to be toxic | IC50 [1]: 132 nM | IC50 ([11]; Escherichia coli, 4 h, read-out: IC50 for 7KOΔtolC): 120 nM | MIC [13]: 0.5 to 1 µg/mL | Activity against non-replicating M. tuberculosis ([13]; grown in low oxygen conditions): active | IC50, strains over-expressing NfsA, NfsB and AzoR ([14]; 7KOΔtolC, pUCX NfsA, NfsB or AzoR): low micromolar | IC50 ([14]; read-out: IC50, MdaB over-expressing strain): 83 nM | IC50 ([14]; read-out: IC50, NemA over-expressing strain): 300 nM | IC50 ([14]; read-out: IC50, empty plasmid control strain): 47 nM | IC50 ([9]; Escherichia coli, 7KO, 4 h, read-out: IC50 for 7KO): > 5000 nM | Anti-quorum sensing activity [15]: highest anti-quorum sensing activity | IC50 [4]: 284 nM | Effect on membrane potential [5]: uncoupled the membrane potential | IC50 [16]: > 20000 nM | Sensitivity of MRSA (concentration level) [10]: nanomolar concentrations
